Our source for the CFU count values is PubChem BioAssay AID743162 (Broad Institute, 2013).

The subject of this assay is Mycobacterium tuberculosis replicating, CFU count, imaging. Put plainly: growth inhibition of replicating M. tuberculosis, dose response, CFU by imaging, dry powder, 7108-01 (AID 743162). The note with it: stronger effect = lower value.

Activity calls are given as the source filed them. The rule behind the calls is not given here.

As for `Cn1c(NC(=O)c2ccccc2)nc2ccccc21`, the CFU count (CFU at 10 uM, at 10 µM) stood at 1.98e+09 and the CFU count (at 64 µM) is 0.
In the same order, the values of `COC(=O)C(C)Oc1ccc2cc(-c3ccccc3)c(=O)oc2c1` (stereo not drawn) are 2.01e+09 and 1e+09 (inactive).
In the same order, the values of `COc1ccc(CNC(=O)Nc2ncc([N+](=O)[O-])s2)cc1` are 1.24e+09 and 220000.
On the same counts, the results for `CCC(C)n1nnc2c(=O)oc3ccccc3c21` (stereo not drawn) are 8.38e+08 and 6.7e+08 (inactive).
`COc1ccc(CCNc2cc(-c3ccccc3)nc3ncnn23)cc1`: the CFU count is, setting by setting: (CFU at 10 uM, at 10 µM) 1.18e+09; (at 64 µM) 4.3e+08 (inactive).
For the compound `c1ccc(-c2n[nH]c(-c3ccccn3)n2)nc1`, the CFU count runs as follows: (CFU at 10 uM, at 10 µM) 1.06e+09; (at 64 µM) 1.3e+09 (inactive).
In the case of `CCOc1ccc(OC(=O)c2ccc3c(=O)n4c(nc3c2)CCC4)cc1`, the CFU count by setting is: (CFU at 10 uM, at 10 µM) 1.36e+09; (at 64 µM) 1e+09 (inactive).
On the same counts, the results for `CCOC(=O)c1cc(COc2c(Cl)cccc2Cl)on1` are 1.85e+09 and 1.7e+09 (inactive).
In the same order, the values of `CSc1nsc(SCc2ccc(C(=O)Nc3cccc(C)c3)cc2)n1` are -1.9e+09 and 1.31e+06.
